Results published in ChEMBL document CHEMBL3046478, “Evaluating anti-Toxoplasma gondii activity of new serie of phenylsemicarbazone and phenylthiosemicarbazones in vitro” (Med Chem Res, 2013).
The source made the active and inactive calls. The rule behind the calls is not given here.

Experiments:
Vero [1] = test: Cytotoxicity against Chlorocebus aethiops (African green monkey) Vero cells infected with Toxoplasma gondii RH tachyzoites assessed as cell death and morphological alterations at 0.01 mM after 24 hr by microscopic analysis; format: cell-based; conditions: chlorocebus sabaeus, 10 µM
Vero [2] = test: Cytotoxicity against Chlorocebus aethiops (African green monkey) Vero cells infected with Toxoplasma gondii RH tachyzoites assessed as cell death and morphological alterations at 0.5 mM after 24 hr by microscopic analysis; format: cell-based; conditions: chlorocebus sabaeus, 500 µM
[3] = Cytotoxicity against Chlorocebus aethiops (African green monkey) Vero cells infected with Toxoplasma gondii RH tachyzoites assessed as cell death and morphological alterations after 24 hr by microscopic analysis; format: cell-based; conditions: chlorocebus sabaeus, read-out: LD50
Toxoplasma gondii [4] = test: Antiparasitic activity against Toxoplasma gondii RH tachyzoites infected African green monkey Vero cells assessed as mortality treated 24 hr after parasite infection measured after 24 hr by Giemsa staining based microscopic analysis; format: functional; conditions: read-out: LD50 (the source's name)
Vero [5] = test: Cytotoxicity against Chlorocebus aethiops (African green monkey) Vero cells infected with Toxoplasma gondii RH tachyzoites assessed as cell death and morphological alterations at 1 mM after 24 hr by microscopic analysis; format: cell-based; conditions: chlorocebus sabaeus, 1000 µM
Toxoplasma gondii [6] = test: Antiparasitic activity against Toxoplasma gondii RH tachyzoites infected African green monkey Vero cells assessed as reduction in number of intracellular parasites at 1 mM treated 24 hr after parasite infection measured after 24 hr by Giemsa staining based microscopic analysis; format: functional, organism-based
Toxoplasma gondii [7] = test: Antiparasitic activity against Toxoplasma gondii RH tachyzoites infected African green monkey Vero cells assessed as reduction in number of infected Vero cells at 0.01 mM treated 24 hr after parasite infection measured after 24 hr by Giemsa staining based microscopic analysis; format: functional
Toxoplasma gondii [8] = test: Antiparasitic activity against Toxoplasma gondii RH tachyzoites infected African green monkey Vero cells assessed as reduction in number of intracellular parasites at 0.01 mM treated 24 hr after parasite infection measured after 24 hr by Giemsa staining based microscopic analysis; format: functional
Toxoplasma gondii [9] = test: Antiparasitic activity against Toxoplasma gondii RH tachyzoites infected African green monkey Vero cells assessed as reduction in number of intracellular parasites at 0.1 mM treated 24 hr after parasite infection measured after 24 hr by Giemsa staining based microscopic analysis; format: functional, organism-based

Structure (SMILES) | Activity (Vero [1]) | Activity (Vero [2]) | CC50 at 24 h [3] [µM] | LC50 (Toxoplasma gondii [4]) [µM] | Activity (Vero [5]) | inhibition (Toxoplasma gondii [6]) | inhibition at 10 µM (Toxoplasma gondii [7]) [%] | inhibition at 10 µM (Toxoplasma gondii [8]) [%] | inhibition (Toxoplasma gondii [9])
O=C(/N=C/c1cc(O)c(O)cc1O)NNc1ccccc1 | Non-toxic | Toxic | 400 | 300 | Toxic |  |  |  | 
Oc1cc(O)c(/C=N/NC(=S)Nc2ccccc2)cc1O | Non-toxic | Toxic | 300 | 80 | Toxic |  |  |  | 
COc1cc(O)cc(OC)c1/C=N/NC(=S)Nc1ccccc1 | Non-toxic | 50% | 700 | 200 | 100% |  |  |  | 
Oc1ccc(/C=N/NC(=S)Nc2ccccc2)c(O)c1O | Non-toxic | Toxic | 400 | 30 | Toxic |  |  |  | 
COc1cc(O)cc(OC)c1/C=N/C(=O)NNc1ccccc1 | Non-toxic |  | > 1000 | 600 |  | Active |  |  | 
O=C(/N=C/c1ccc(O)c(O)c1O)NNc1ccccc1 | Non-toxic | Toxic | 70 | 20 | Toxic |  | 50 |  | 
O=C(N/N=C/c1cc(O)c(O)cc1O)Nc1ccccc1 | Non-toxic | Toxic | 300 | 6 | Toxic |  |  | 82 | Active
COc1cc(O)cc(OC)c1/C=N/NC(=O)Nc1ccccc1 | Non-toxic |  | > 1000 | 500 |  |  |  |  | 
O=C(N/N=C/c1ccc(O)c(O)c1O)Nc1ccccc1 | Non-toxic | Toxic | 300 | 200 | Toxic |  |  |  | 
Nc1ccc(S(=O)(=O)Nc2ncccn2)cc1 [SULFADIAZINE] |  |  | > 10000 | 6000 |  |  |  |  | 
